Data as given in PubChem BioAssay (NCI).
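The concentration for 50% growth inhibition is given as GI50. The concentration for full growth arrest is given as TGI.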

Columns and labels:
Assay in all cases: NCI tumour cell line growth inhibition, 384-well format
KM12 colon = tested on: KM12 colon
NCI-H522 lung = tested on: NCI-H522 lung
SW-620 colon = tested on: SW-620 colon
BT-549 breast = tested on: BT-549 breast
T-47D breast = tested on: T-47D breast
MDA-MB-231 breast = tested on: MDA-MB-231 breast
SNB-19 CNS = tested on: SNB-19 CNS
CAKI-1 renal = tested on: CAKI-1 renal
SF-268 CNS = tested on: SF-268 CNS
HOP-92 NSCLC = tested on: HOP-92 NSCLC
HCC-2998 colon = tested on: HCC-2998 colon
SK-MEL-2 melanoma = tested on: SK-MEL-2 melanoma
A549 NSCLC = tested on: A549 NSCLC

## CCS(=O)(=O)N1CCC(C(C)n2c(C)c(C(=O)NCc3c(OC)cc(C)[nH]c3=O)c3ccccc32)CC1 (stereo unspecified)
KM12 colon
  GI50: > 100 µM
  TGI: > 100 µM
NCI-H522 lung
  GI50: > 100 µM
  TGI: > 100 µM
SW-620 colon
  GI50: > 100 µM
  TGI: > 100 µM
BT-549 breast
  GI50: > 100 µM
  TGI: > 100 µM
T-47D breast
  GI50: > 64.5 µM
  TGI: > 100 µM
MDA-MB-231 breast
  GI50: > 100 µM
  TGI: > 100 µM
SNB-19 CNS
  GI50: > 100 µM
  TGI: > 100 µM
CAKI-1 renal
  GI50: > 100 µM
  TGI: > 100 µM
SF-268 CNS
  GI50: > 42.6 µM
  TGI: > 96.3 µM
HOP-92 NSCLC
  GI50: > 100 µM
  TGI: > 100 µM
HCC-2998 colon
  GI50: > 100 µM
  TGI: > 100 µM
SK-MEL-2 melanoma
  GI50: > 100 µM
  TGI: > 100 µM
A549 NSCLC
  GI50: > 100 µM
  TGI: > 100 µM
